This is an account of results in patent US7396842B2, “Five-membered cyclic compounds” (Dianippon Sumitomo Pharma Co., Ltd., priority 2002, dated 2008).

One assay deals with T1, SMBS on rat lung membranes (Rattus norvegicus, UniProt A0A8I6A822).
T1 construct: from tissue; host or cells: rat lung membranes (SD male rats)
T1 sequence (A0A8I6A822 27-587): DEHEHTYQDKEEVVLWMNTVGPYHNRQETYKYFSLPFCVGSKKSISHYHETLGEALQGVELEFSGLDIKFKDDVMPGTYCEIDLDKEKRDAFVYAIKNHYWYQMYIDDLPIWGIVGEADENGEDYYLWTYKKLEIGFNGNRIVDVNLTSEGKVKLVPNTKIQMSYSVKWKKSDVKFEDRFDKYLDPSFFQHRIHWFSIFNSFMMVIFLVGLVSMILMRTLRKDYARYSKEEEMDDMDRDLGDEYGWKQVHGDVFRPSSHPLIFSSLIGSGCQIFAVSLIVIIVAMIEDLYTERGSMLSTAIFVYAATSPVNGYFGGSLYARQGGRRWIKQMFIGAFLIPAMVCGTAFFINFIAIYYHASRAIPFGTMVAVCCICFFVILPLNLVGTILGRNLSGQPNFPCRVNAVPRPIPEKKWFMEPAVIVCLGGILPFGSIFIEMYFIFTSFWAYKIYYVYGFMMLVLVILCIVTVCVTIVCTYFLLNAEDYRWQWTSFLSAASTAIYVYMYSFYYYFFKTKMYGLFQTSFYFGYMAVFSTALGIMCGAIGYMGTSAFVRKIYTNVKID
Briefly: Receptor binding of the compound in rat lung membranes ([125I]-iodo-cyanopindolol ligand binding assay; Experiments 1 and 4). To be noted: Table 39; compound concentration 30 μM; [125I]-iodo-cyanopindolol, rat lung membranes; Experiment 1; read-out: Binding Activity (30 μM). As to the method: Evaluation Test on Receptor Binding of the Compound in Rat Lung Membranes:
This experiment was carried out according to the method disclosed in Sugasawa et al., (Sugasawa, T. et al., J. Biol. Chem., 272, 21244-21252(1997)).
Preparation of Rat Lung Membranes
The air tube and blood vessels were removed from the lung excised from SD male rats (7-weeks old when used, purchased from Charles River Japan, Inc.), and the lung was chopped, and washed with ice-cold tris-saline buffer (10 mM Tris-HCl, 154 mM sodium chloride, pH 7.4). The lung was homogenized by PHYSCOTRON (maximum speed: 1 minute) in a buffer for homogenization (tris-saline buffer containing 1 mM ethylenediaminetetraacetate (EDTA), 1 mM 4-(2-aminoethyl)-benzenesulfonyl fluoride (AEBSF), 5 μg/ml aprotinin, 5 μg/ml leupeptin) under ice-cooling. The mixture was centrifuged at a low speed (1500×g, 20 minutes, 4° C.), and the supernatant was super-centrifuged (100000×g, 20 minutes, 4° C.). The pellets thus obtained were suspended in tris-saline buffer, and kept at −80° C. The concentration of protein was measured by a Protein Assay Kit manufactured by Bio-Rad using bovine serum albumin (BSA) as standard.
To each well of a protein-non-adsorbent round-bottom 96-well assay plate (purchased from IWAKI GLASS CO., LTD.) was added tris-saline buffer (200 μl) containing 1 nM [^125I]-iodo-cyanopindolol (purchased from Amarsham), 10 μM serotonin, 20 μM dl-propranol, 10 μM phentoramine, 1.1 mM ascorbic acid and 100 μg lung membranes, and the mixture was mixed well by pipetting, and the plate was incubated at 37° C. for 30 minutes. Test compounds were dissolved in 100% dimethylsulfoxide, and added to the plate in an amount of 2 μl (final concentration of DMSO: 1%). In order to obtain non-specific binding, L-threo-3-(3,4-dihydroxyphenyl)-N-[3-(4-fluorophenyl)propyl]-serinepyrrolidinamide was added at a final concentration of 100 μM instead of test compound. During this period, 0.3% polyethyleneimine (PEI)/tris-saline buffer (100 μl) was added to a multiscreen plate (96-well B-glassfiber, milipore Cat. No. MAFB NOB10) and the plate was incubated for more than 30 minutes. The plate was washed by vacuum filtration (by adding ice-cold tris-saline buffer (200 μl) and then vacuum filtration), and the reaction solution on the 96-well assay plate was washed by vacuum filtration onto the multiscreen plate for four times. The B-glassfiber paper filter at the bottom of the multiscreen plate was punched out, and the γ-ray amount of [^125I]-iodo-cyanopindolol being trapped onto the paper filter was measured as binding amount. The binding amount in the presence of DMSO (final concentration: 1%) was regarded as total binding, and the binding in the presence of L-threo-3-(3,4-dihydroxyphenyl) -N-[3-(4-fluorophenyl)-propyl]serinepyrrolidinamide was regarded as non-specific binding. The value which is calculated by subtracting non-specific binding from total binding is specific binding. The binding activity of the compound can be calculated by the following equation, and expressed in a ratio of inhibiting the specific binding of [^125I]-iodo-cyanopindorol to SMBS on rat lung membranes.
In the same manner to in Experiment 1, the receptor binding assay was carried out on the present compounds by using the rat lung membranes.
As to `CC(=O)NCCCn1c(-c2ccc(Br)cc2)csc1=Nc1ccccc1` [Example 153, N-{3-[4-(4-Bromophenyl)-2-phenyliminothiazol-3(2H)-yl]propyl}-acetamide], the inhibition at 30 µM was 89.7%. On to `COC(=O)NCCCn1c(-c2ccc(OC)cc2)csc1=Nc1ccccc1` [Example 176, Methyl 3-[4-(4-methoxyphenyl)-2-(phenylimino)thiazol-3(2H)-yl]propyl-carbamate], for which the inhibition at 30 µM is 75.2%.

The assay is the same for the next values; noted with them: Table 42; concentration tested 30 μM; rat lung membranes; Experiment 4; read-out: Binding Activity (30 μM).
Take `O=C(NCCCn1c(-c2ccc(N3CCOCC3)cc2)cs/c1=N\c1ccc(F)cc1)NCc1ccccc1` [Example 290]: the inhibition at 30 µM amounted to 98%. The same measure, in the same setting: the result for `CNC(=O)NCCn1c(-c2ccc(N3CCOCC3)cc2)csc1=Nc1ccc(F)cc1` [Example 214, N-Methyl-N′-{2-[2-[(4-fluorophenyl)imino]-4-[4-(morpholino)phenyl]-thiazol-3(2H)-yl]ethyl}urea] reads 99%; that for `CCOC(=O)CNCCCn1c(-c2ccc(F)cc2)csc1=Nc1ccc(Cl)cc1OC` [Example 215, Ethyl N-{3-[2-[(4-chloro-2-methoxyphenyl)imino]-4-(4-fluorophenyl)-thiazol-3(2H)-yl]propyl}glycinate], 109%; that for `CN(C)C(=O)NCCCn1c(-c2ccc(N3CCOCC3)cc2)csc1=Nc1ccc(F)cc1` [Example 220, N′-{3-[2-[(4-Fluorophenyl)imino]-4-[4-(morpholino)phenyl]thiazol-3(2H)-yl]propyl}-N,N-dimethylurea], 101%. The same measure, in the same setting: the value for `N=C(NCCCn1c(-c2ccc(N3CCOCC3)cc2)cs/c1=N\c1ccc(F)cc1)N1CCCCC1` [Example 257] was 110%. For the compound `CCOC(=O)CC(=O)NCCCn1c(-c2ccc(N3CCOCC3)cc2)cs/c1=N\c1ccc(F)cc1` [Example 239], the inhibition at 30 µM was 50%. Still for that read-out and setting: the result for `CCOC(=O)CCNCCCn1c(-c2ccc(F)cc2)csc1=Nc1ccc(Cl)cc1OC` [Example 216, Ethyl N-{3-[2-[(4-chloro-2-methoxyphenylimino)]-4-(4-fluoro-phenyl)-thiazol-3 (2H)-yl]propyl}-β-alaninate] reads 112%.

Staying with this assay, now noted: Table 43; concentration tested 30 μM; rat lung membranes; Experiment 4; read-out: Binding Activity (30 μM).
For the compound `COCCNCCCn1c(-c2ccc(F)cc2)cs/c1=N\c1ccc(Cl)cc1OC` [Example 315], the inhibition at 30 µM stood at 115%. For the compound `CCNC(=O)NCCCn1c(COCc2ccccc2)cs/c1=N\c1ccc(OC(F)(F)F)cc1` [Example 305], the inhibition at 30 µM came out at 13%. Still for that read-out and setting: the value for `CN(C)CC(=O)NCCCn1c(-c2ccc(N3CCOCC3)cc2)cs/c1=N\c1ccc(F)cc1` [Example 361] was 88%; that for `O=C(CNCCCn1c(-c2ccc(N3CCOCC3)cc2)cs/c1=N\c1ccc(F)cc1)NCCO` [Example 344] was 101%; that for `COCCNCCCn1c(-c2ccc(F)cc2)cs/c1=N\Cc1ccc(Cl)cc1OC` [Example 411, 3-[2-[(4-Chloro-2-methoxybenzyl)imino]-4-(4-fluorophenyl)-1,3-thiazol-3(2H)-yl]-(2-methoxyethyl)-1-propanamine] was 118%.

Regarding `CN(C)CCNC(=O)NCCCn1c(-c2ccc(N3CCOCC3)cc2)csc1=Nc1ccc(F)cc1` [Example 349, N-[2-(Dimethylamino)ethyl]-N′-{3-[2-[(4-fluorophenyl)imino]-4-[4-(morpholino)phenyl]thiazol-3(2H)-yl]propyl}urea], the inhibition at 30 µM came to 100%. For the compound `O=C(O)CNCCCn1c(-c2ccc(N3CCOCC3)cc2)csc1=Nc1ccc(F)cc1` [Example 329, N-{3-[2-[(4-Fluorophenyl)imino]-4-[4-(morpholino)phenyl]thiazol-3(2H)-yl]propyl}glycine], the inhibition at 30 µM is 76%. `CCNC(=O)NCCCn1c(-c2ccc(N3CCOCC3)cc2)cs/c1=N\c1nccs1` [Example 299]: the inhibition at 30 µM amounted to 93%. For `CCNC(=O)NCCCn1c(-c2ccc(F)cc2)cs/c1=N\Cc1ccc(Cl)cc1OC` [Example 402, N-{3-[2-[(4-Chloro-2-methoxybenzyl)imino]-4-(4-fluorophenyl)-1,3-thiazol-3(2H)-yl]propyl}-N′-ethylurea], the inhibition at 30 µM was determined as 79%.

Staying with this assay, now noted: Table 44; concentration tested 30 μM; rat lung membranes; Experiment 4; read-out: Binding Activity (30 μM).
Consider `O=C(NCCCn1c(-c2ccc(OC(F)(F)F)cc2)cs/c1=N\Cc1ccc(Cl)cc1)NCCN1CCCC1` [Example 408], for which the inhibition at 30 µM came to 121%. As for `CC(=O)NCCCn1c(-c2ccc(OC(F)(F)F)cc2)cs/c1=N\C(=O)c1ccccn1` [Example 449], the inhibition at 30 µM is 71%. Turning to `O=C(O)CCNCCCn1c(-c2ccc(OC(F)(F)F)cc2)cs/c1=N\Cc1ccc(Cl)cc1` [Example 428], the inhibition at 30 µM is 103%.

For `O=C(NCCCn1c(-c2ccc(OC(F)(F)F)cc2)cs/c1=N\Cc1ccc(Cl)cc1)N1CCOCC1` [Example 405], the inhibition at 30 µM is 115%. Same read-out and setting: the result for `CCS(=O)(=O)NCCCn1c(-c2ccc(OC(F)(F)F)cc2)cs/c1=N\Cc1ccc(Cl)cc1` [Example 430, N′-{3-[2-[(4-Chlorobenzyl)imino]-4-[4-(trifluoromethoxy)phenyl]-1,3-thiazol-3(2H)-yl]propyl}ethanesulfonamide] reads 89%. For `COc1ccc(C(=O)N=c2scc(CNS(=O)(=O)c3ccc(C)cc3)n2CCCNC(C)=O)c(OC)c1` [Example 473, N-[3-[3-(Acetylamino)propyl]-4-({[(4-methylphenyl)sulfonyl]amino}-methyl)thiazol-2(3H)-ylidene]-2,4-dimethoxybenzamide], the inhibition at 30 µM amounted to 33%. As to `CCCC(=O)NCCCn1c(-c2ccc(OC(F)(F)F)cc2)cs/c1=N\C(=O)c1ccc(OC)cc1OC` [Example 447], the inhibition at 30 µM was found to be 89%. As to `CCCCCC(=O)NCCCn1c(-c2ccc(OC(F)(F)F)cc2)cs/c1=N\C(=O)c1ccc(OC)cc1OC` [Example 448], the inhibition at 30 µM was found to be 77%.

As to `CC(=O)NCCCn1c(-c2ccc(OC(F)(F)F)cc2)cs/c1=N\C(=O)CC1CCCC1` [Example 458], the inhibition at 30 µM is 87%. On the same count and under the same terms, the value for `CCOC(=O)NCCCn1c(-c2ccc(OC(F)(F)F)cc2)cs/c1=N\C(=O)c1ccc(OC)cc1OC` [Example 444] was 99%; that for `COc1ccc(C(=O)/N=c2\scc(C(=O)NCCCCc3ccccc3)n2CCCN)c(OC)c1` [Example 435] was 93%; that for `CC(=O)NCCCn1c(-c2ccc(OC(F)(F)F)cc2)cs/c1=N\C(=O)CCc1ccccc1` [Example 454] was 38%.

Still in this assay, the particulars now being: ratio of inhibiting the specific binding of [125I]-iodo-cyanopindolol; test concentration 30 μM; rat lung membranes; read-out: Binding Activity (30 μM).
With `COc1ccc(C(=O)/N=c2\scc(-c3ccc(OC(F)(F)F)cc3)n2CCCNCC(N)=O)c(OC)c1` [Example 521], the inhibition at 30 µM amounted to 74%. Same read-out and setting: the value for `CCNC(=O)NCCCn1c(-c2ccc(OC(F)(F)F)cc2)cs/c1=N\C(=O)c1ccc(OC)cc1OC` [Example 484] was 97%. Regarding `COc1ccc(C(=O)/N=c2\scc(C(=O)Nc3ccc(Cl)cc3)n2CCCNC(C)=O)c(OC)c1` [Example 461], the inhibition at 30 µM amounted to 42%. Consider `COc1ccc(C(=O)/N=c2\scc(-c3ccc(OC(F)(F)F)cc3)n2CCCNC(=O)N2CCOCC2)c(OC)c1` [Example 509], for which the inhibition at 30 µM was 103%. On to `COc1ccc(C(=O)/N=c2\scc(-c3ccc(OC(F)(F)F)cc3)n2CCCNCC(=O)NCC(=O)O)c(OC)c1` [Example 523], for which the inhibition at 30 µM turned out to be 73%.

Still in this assay, the particulars now being: read-out: Binding Activity (30 μM).
For the compound `O=C(NCCCl)NCCCn1c(-c2ccc(OC(F)(F)F)cc2)cs/c1=N\Cc1ccc(Cl)cc1` [Example 390], the inhibition at 30 µM stood at 120%.
